According to patent publication US5206229A, “Vitamin D analogues” (Leo Pharmaceutical Products LTD, priority 1988, dated 1993):

Tests used:
[1] = calcium metabolism in rats (hypercalciuria, hypercalcemia)
[2] = tested on: human monocytic tumour cell line; test: inhibition of proliferation of tumour cells; assay type: cell-based; settings: compared with 1,25(OH)2 D3
[3] = tested on: human monocytic tumour cell line; test: induction of cell differentiation in a human monocytic tumour cell line; assay type: cell-based; settings: compared with 1,25(OH)2 D3
[4] = tested on: intestinal vitamin D receptor; settings: in vitro; compared with 1,25(OH)2 D3; cited from earlier work
[5] = cited from earlier work
cell proliferation [6] = settings: cited from earlier work
cell differentiation [7] = settings: cited from earlier work
cell differentiation [8] = settings: more potent than 1,25(OH)2 D3; cited from earlier work
[9] = in vivo; cited from earlier work
[10] = tested on: chicken intestinal receptor; settings: compared with 1,25(OH)2 D3; cited from earlier work
HL-60 cells = settings: in vitro; more potent than 1,25(OH)2 D3; cited from earlier work
rat intestinal receptor = settings: compared with 1,25(OH)2 D3; cited from earlier work
[11] = in vivo; compared with 1,25(OH)2 D3; cited from earlier work
[12] = tested on: receptor in a human myeloid leukemia cell line (HL-60); settings: compared with 1,25(OH)2 D3; cited from earlier work
[13] = in vivo; cited from earlier work; remark: listed apart in the source
interleukins = settings: cited from earlier work
cell proliferation [14] = settings: cited from earlier work; remark: listed apart in the source
differentiation of cells = settings: cited from earlier work

Structure (SMILES): C=C1/C(=C\C=C2/CCC[C@]3(C)[C@@H]([C@H](C)/C=C/CCCCC(C)(C)O)CC[C@@H]23)C[C@@H](O)C[C@@H]1O [Compound 38]
- in vivo potency on calcium metabolism [1]: lower in vivo potency
- concentration effective in inhibiting proliferation [2]: the same low concentrations as 1,25(OH)2 D3
- concentration needed to induce cell differentiation [3]: the same low concentrations as 1,25(OH)2 D3

Structure (SMILES): C=C1/C(=C\C=C2/CCC[C@]3(C)[C@@H]([C@H](C)CCCCCCC(C)(C)O)CC[C@@H]23)C[C@@H](O)C[C@@H]1O [Compound 37, 1(S),3(R)-Dihydroxy-20(R)-(7-hydroxy-7-methyl-1-octyl)-9,10-secopregna-5(Z),7(E),10(19)-triene]
- in vivo potency on calcium metabolism [1]: lower in vivo potency
- concentration effective in inhibiting proliferation [2]: the same low concentrations as 1,25(OH)2 D3
- concentration needed to induce cell differentiation [3]: the same low concentrations as 1,25(OH)2 D3

Structure (SMILES): C=C1/C(=C\C=C2/CCC[C@]3(C)[C@@H]([C@H](C)/C=C/[C@@H](O)C4CC4)CC[C@@H]23)C[C@@H](O)C[C@@H]1O [MC 903]
- binding to the intestinal vitamin D receptor [4]: binds equally well as 1,25(OH)2 D3
- activity on calcium metabolism in vivo [5]: only moderate activity
- inhibition of cell proliferation (cell proliferation [6]): inhibitor of cell proliferation
- induction of cell differentiation (cell differentiation [7]): potent inducer of cell differentiation

Structure (SMILES): C=C1/C(=C\C=C2/CCC[C@]3(C)[C@@H]([C@H](C)CCCC(O)(CCC)CCC)CC[C@@H]23)C[C@@H](O)C[C@@H]1O [26,27-diethyl-1α,25-dihydroxyvitamin D3]
- potency in inducing cell differentiation relative to 1,25(OH)2 D3 (cell differentiation [8]): 10 fold
- vitamin D activity (calcium metabolism effects) [9]: almost no vitamin D activity

Structure (SMILES): C=C1/C(=C\C=C2/CCC[C@]3(C)[C@@H]([C@H](C)CCCCC(C)(C)O)CC[C@@H]23)C[C@@H](O)C[C@@H]1O [24-Homo-1,25-dihydroxyvitamin D3]
- binding affinity to the chicken intestinal receptor [10]: the same binding affinity as 1,25(OH)2 D3
- potency in inducing differentiation of HL-60 cells relative to 1,25(OH)2 D3 (HL-60 cells): 10 fold
- binding affinity to the rat intestinal receptor (rat intestinal receptor): the same binding affinity as 1,25(OH)2 D3
- potency in calcium metabolism assessments [11]: significantly less potent
- binding affinity to the receptor in HL-60 [12]: the same binding affinity as 1,25(OH)2 D3

Structure (SMILES): C=C1/C(=C\C=C2/CCC[C@]3(C)[C@@H]([C@H](C)CCCCCC(C)(C)O)CC[C@@H]23)C[C@@H](O)C[C@@H]1O [Compound 36, 1(S),3(R)-Dihydroxy-20(R)-(6-hydroxy-6-methyl-1-heptyl)-9,10-secopregna-5(Z),7(E),10(19)-triene]
- in vivo potency on calcium metabolism [1]: lower in vivo potency
- concentration effective in inhibiting proliferation [2]: the same low concentrations as 1,25(OH)2 D3
- concentration needed to induce cell differentiation [3]: the same low concentrations as 1,25(OH)2 D3

Structure (SMILES): C=C1/C(=C\C=C2/CCC[C@]3(C)[C@@H]([C@H](C)/C=C/CCCC(C)(C)O)CC[C@@H]23)C[C@@H](O)C[C@@H]1O [Compound 54]
- in vivo potency on calcium metabolism [1]: lower in vivo potency
- concentration effective in inhibiting proliferation [2]: the same low concentrations as 1,25(OH)2 D3
- concentration needed to induce cell differentiation [3]: the same low concentrations as 1,25(OH)2 D3

Structure (SMILES): C=C1/C(=C\C=C2/CCC[C@]3(C)[C@@H]([C@H](C)CCCC(C)(O)CC)CC[C@@H]23)C[C@@H](O)C[C@@H]1O (some centres unmarked) [26-homo-1,25-dihydroxyvitamin D3]
- binding affinity to the chicken intestinal receptor [10]: the same binding affinity as 1,25(OH)2 D3
- potency in inducing differentiation of HL-60 cells relative to 1,25(OH)2 D3 (HL-60 cells): 10 fold
- binding affinity to the rat intestinal receptor (rat intestinal receptor): the same binding affinity as 1,25(OH)2 D3
- potency in calcium metabolism assessments [11]: more potent
- binding affinity to the receptor in HL-60 [12]: the same binding affinity as 1,25(OH)2 D3

Structure (SMILES): C=C1/C(=C\C=C2/CCC[C@]3(C)[C@@H]([C@H](C)CCCC(C)(C)O)CC[C@@H]23)C[C@@H](O)C[C@@H]1O [1,25(OH)2 D3, 1α,25-dihydroxy-vitamin D3]
- effect on calcium metabolism [13]: well known potent effect
- effect on interleukins (interleukins): influences the effects and/or production of interleukins
- inhibition of excessive cell proliferation (cell proliferation [14]): inhibit excessive cell proliferation
- stimulation of differentiation of cells (differentiation of cells): able to stimulate the differentiation of cells
